From patent publication US5659041A, “Hydrazino-type radionuclide chelators having an N3 S configuration” (Resolution Pharmaceuticals, Inc., priority 1994, dated 1997)
Numbered stars: 1 amine (or outer) side, 2 acyl side, 3 side chain; on linkers, the order of the positions; unused ones are H or OH. Square brackets hold non-standard residues; d marks the D form. Peptide text beside a SMILES is read from it. X2 = CN(N[*:1])c1ccc(C(=O)[*:2])cn1; X1 = O=C(CSCN[*:1])[*:2]

How the values were obtained:
[1] = Extent of complexation of 99mTc with chelators (radioactivity of eluted C-18 Sep-Pak fractions); assay type: physicochemical; settings: for Chelator (EtOH-saline eluate), percent of total / Chelator (EtOH-saline eluate), radioactivity / TcO2, percent of total / TcO2, radioactivity / TcO4- (HCl eluate), percent of total / TcO4- (HCl eluate), radioactivity of eluted fraction: Example 2: SnCl2, pH 6, Example 4: sodium dithionite, pH 12-13, 75° C.
Experimental: The chelator N-(S-benzoylmercaptoacetyl)-glycyl-2-pyridylhydrazide (example 2, 1 mg) was dissolved in EtOH-water and hydrolyzed by heating with NaOH, after which the reaction mixture was neutralized with acetic acid to pH 6. 350 μg hydrolyzed chelator was reacted with 103 MBq TcO4^- and 10 μg SnCl2 at room temperature. […] To achieve adequate separation of the chelator, the solution was then loaded on a C-18 SepLPak column which was eluted with dilute HCI to remove Tc04-. Subsequent elution with 1:1 EtOH-saline removed the chelator while Tc02 remained on the column.
Another chelator was similarly labeled. Particularly, 300 μg of the hydrolyzed chelator N-(S-benzoylmercaptoacetyl)-glycyl-3-(6-chloropyridazyl)-hydrazide (example 4) was adjusted to pH 12-13 and reduced with 100 μg of sodium dithionite for 10 minutes at 75° C. The resulting mixture was then loaded on a C-18 Sep-Pak column and eluted with dilute HCI followed by EtOH-saline. The extent of complexation of ^99m Tc with chelators was measured by radioactivity of the eluted fractions; results are shown in the table below.

[2] = In vivo distribution of 99mTc labeled chelators within rats; set-up: species or system male Wistar rats; settings: rat, i.v. tail vein
Experimental: Distribution within rats of selected chelators and a reference chelator was determined using established protocols. Briefly, male Wistar rats (Charles River, 200 g) were anesthetized with somnitol (40 to 50 mg/kg) and 200 μL of the labeled chelator (ie. 200 μCi) was injected intravenously via the tail vein. Serial whole-body scintigrams were acquired for first 10 minutes. After further images were obtained at 60 and 120 minutes, the rat was killed with anesthesia and samples of organs (blood, heart, lung, liver, spleen, kidney, muscle, GI tract) were weighed and counted in either a well-type gamma counter or in a gamma dose calibrator. Dose calculations were made based On the assumption that rats weighed 200 g and that the blood volume constituted 8% body weight. All results were corrected for the residual dose in the tail.

[3] = Labeling of chelator-conjugate with 99mTc (HPLC radioactivity of fractions); assay type: physicochemical; settings: pertechnetate, stannous gluconate, boiling water bath 12 minutes
Experimental: The chelator-conjugate of example 11 (200 μL, 1 mg/mL saline) was injected into a 3 mL vacutainer with 100 μL pertechnetate (10 mCi) and 100 μL stannous gluconate (50 μg stannous chloride and 1 mg sodium gluconate). The tube was placed in a boiling water bath for 12 minutes and then filtered through a Watman PVDF syringe filter to collect the labeled conjugate solution which was further diluted with saline to prepare an injectable solution (2 Mbq/mL). The chelator-conjugate was isolated by HPLC (Beckman) from a (20 μL) sample (before dilution) to determine the labeling yield by measuring radioactivity of the fractions. 70.8%, 5.1% and 15.0% of the label was found in each of three fractions eluted for a 90.9% total labeling yield.

[4] = test system: "Tuftsin" receptors on leukocytes; assay: Binding of TKPPR peptide to Tuftsin receptors on leukocytes
[5] = 200 μCi, organs counted after 120 minutes images

For `O=C(CSC(=O)c1ccccc1)NCC(=O)NNc1ccccn1` [Example 2, N-(S-benzoylmercaptoacetyl)-glycyl-2-pyridylhydrazide], the “Chelator (EtOH-saline eluate), percent of total” value [1] was 68%, the “Chelator (EtOH-saline eluate), radioactivity” value [1] was 27.6 MBq and the “TcO2, percent of total” value [1] was 31%. For the same compound, the “TcO2, radioactivity” value [1] was 12.5 MBq, the “TcO4- (HCl eluate), percent of total” value [1] was 1% and the “TcO4- (HCl eluate), radioactivity of eluted fraction” value [1] was 0.15 MBq. The “activity present as TcO2” value ([1]; SnCl2 at room temperature, pH 6, did not change after heating 10 minutes at 80° C.) was “Approximately half activity was present as TcO2”, the “dose in the liver and GI tract” value [2, 5] was “about 60%” and the “dose remaining in the blood” value [2, 5] was “about 6%”.

In the case of `COC(=O)CC[C@H](NC(=O)CSC(=O)c1ccccc1)C(=O)NNc1ccccn1` [Example 3, No(S-benzoylmercaptoacetyl)-L-glutamyl-(gamma-methyl ester)-2-pyridylhydrazide], the “accumulation in the kidney” value ([2]; 200 μCi, compared with the other chelators) is reported as “greatest accumulation in the kidney”.

With `O=C(CSC(=O)c1ccccc1)NCC(=O)NNc1ccc(Cl)nn1` [Example 4, N-(S-benzoylmercaptoacetyl)-glycyl-3-(6-chloropyridazyl)-hydrazide] the “Chelator (EtOH-saline eluate), percent of total” value [1] was 78%, the “Chelator (EtOH-saline eluate), radioactivity” value [1] was 14.19 MBq and the “TcO2, percent of total” value [1] was 14%. For the same compound, the “TcO2, radioactivity” value [1] was 2.55 MBq, the “TcO4- (HCl eluate), percent of total” value [1] was 8% and the “TcO4- (HCl eluate), radioactivity of eluted fraction” value [1] was 1.38 MBq. The “clearance from the blood (and other tissues)” value ([2]; 200 μCi) was “fastest clearance from the blood and other tissues”, the route of elimination ([2]; 200 μCi) was “mainly eliminated through the liver and GI tract” and the “dose in the liver and GI tract” value [2, 5] was “About 70%”.

For `COC(=O)CC[C@H](NC(=O)CSC(=O)c1ccccc1)C(=O)NNc1ccc(Cl)nn1` [Example 5, N-(S-benzoylmercaptoacetyl)-L-glutamyl-(gamma-methylester)-3-(6-chloropyridazyl)-hydrazide], the “dose localized in the GI tract” value [2, 5] was 55% and the “dose remaining in the blood” value [2, 5] was “about 10%”.

`CC(=O)NCSCC(=O)N[C@@H](CO)C(=O)NN(C)c1ccc(C(=O)NCC(=O)N[C@H](C(=O)N[C@@H](CCCCN)C(=O)N2CCC[C@H]2C(=O)N2CCC[C@H]2C(=O)N[C@@H](CCCNC(=N)N)C(=O)O)[C@@H](C)O)cn1` [Example 11, S-Acm-Mercaptoacetyl-Ser-N-methylhydrazino nicotinic acid- Gly--Thr--Lys--Pro--Pro--Arg] (Ac-[X1]S[X2]GTKPPR-OH) gave a total labeling yield [3] of 90.9%.

With `O=C(CNC(=O)CSC(=O)c1ccccc1)NCc1ccccn1` [N-(S-benzoylmercaptoacetyl)-glycyl-2-pyridylmethylamide, reference compound] the “retention in the blood pool” value ([2]; reference chelator lacking hydrazide) was “extensively retained in the blood pool”.

With TKPPR the “binding to "Tuftsin" receptors on leukocytes” value [4] was “binds particularly well”.
